This is an account of results in ChEMBL document CHEMBL3108763, “[1,2,4]triazolo[4,3-a]phthalazines: inhibitors of diverse bromodomains” (J Med Chem, 2014).

What is called inhibition is the change of the read-out against control, counted positive when it falls. A higher inhibition goes with strong suppression.

Experiment [1] has as its target T1, Transcription intermediary factor 1-alpha (Homo sapiens) (UniProt O15164).
T1 sequence (whole entry): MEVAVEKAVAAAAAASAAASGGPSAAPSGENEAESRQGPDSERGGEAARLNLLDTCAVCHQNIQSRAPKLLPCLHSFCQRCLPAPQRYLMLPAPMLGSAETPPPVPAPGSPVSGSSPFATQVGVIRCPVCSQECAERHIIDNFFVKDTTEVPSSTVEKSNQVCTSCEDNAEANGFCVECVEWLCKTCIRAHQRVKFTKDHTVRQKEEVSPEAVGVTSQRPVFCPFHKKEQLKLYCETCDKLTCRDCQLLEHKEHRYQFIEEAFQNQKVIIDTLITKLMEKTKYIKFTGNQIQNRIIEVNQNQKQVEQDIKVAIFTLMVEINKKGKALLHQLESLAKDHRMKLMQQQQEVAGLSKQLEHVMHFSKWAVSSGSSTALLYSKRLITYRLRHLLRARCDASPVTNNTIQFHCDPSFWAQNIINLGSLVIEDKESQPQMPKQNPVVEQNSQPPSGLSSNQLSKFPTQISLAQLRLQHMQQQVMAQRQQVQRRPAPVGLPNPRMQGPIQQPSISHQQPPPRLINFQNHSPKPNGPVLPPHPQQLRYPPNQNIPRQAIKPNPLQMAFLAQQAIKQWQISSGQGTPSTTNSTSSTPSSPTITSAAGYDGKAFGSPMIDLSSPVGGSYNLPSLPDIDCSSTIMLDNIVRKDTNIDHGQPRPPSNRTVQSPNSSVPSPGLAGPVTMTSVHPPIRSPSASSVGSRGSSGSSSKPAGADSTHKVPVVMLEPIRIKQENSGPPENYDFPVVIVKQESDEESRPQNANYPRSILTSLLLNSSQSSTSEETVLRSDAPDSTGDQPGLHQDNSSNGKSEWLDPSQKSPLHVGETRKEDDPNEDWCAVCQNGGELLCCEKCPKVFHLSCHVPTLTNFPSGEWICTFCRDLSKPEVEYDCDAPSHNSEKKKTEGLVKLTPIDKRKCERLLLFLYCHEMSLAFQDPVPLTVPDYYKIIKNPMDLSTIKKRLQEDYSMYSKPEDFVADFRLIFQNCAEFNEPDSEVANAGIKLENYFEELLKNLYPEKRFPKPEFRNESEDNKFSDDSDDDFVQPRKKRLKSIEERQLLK
The following applies: 50 uM.

In experiment [2] the target is T1, Transcription intermediary factor 1-alpha (Homo sapiens). The following applies: 100 uM.
The target in experiment [3] is Protein polybromo-1 (Homo sapiens) (UniProt Q86U86). Particulars: 100 uM.
Sequence of Protein polybromo-1 (Homo sapiens) (Q86U86 whole entry, the tested form may be a part): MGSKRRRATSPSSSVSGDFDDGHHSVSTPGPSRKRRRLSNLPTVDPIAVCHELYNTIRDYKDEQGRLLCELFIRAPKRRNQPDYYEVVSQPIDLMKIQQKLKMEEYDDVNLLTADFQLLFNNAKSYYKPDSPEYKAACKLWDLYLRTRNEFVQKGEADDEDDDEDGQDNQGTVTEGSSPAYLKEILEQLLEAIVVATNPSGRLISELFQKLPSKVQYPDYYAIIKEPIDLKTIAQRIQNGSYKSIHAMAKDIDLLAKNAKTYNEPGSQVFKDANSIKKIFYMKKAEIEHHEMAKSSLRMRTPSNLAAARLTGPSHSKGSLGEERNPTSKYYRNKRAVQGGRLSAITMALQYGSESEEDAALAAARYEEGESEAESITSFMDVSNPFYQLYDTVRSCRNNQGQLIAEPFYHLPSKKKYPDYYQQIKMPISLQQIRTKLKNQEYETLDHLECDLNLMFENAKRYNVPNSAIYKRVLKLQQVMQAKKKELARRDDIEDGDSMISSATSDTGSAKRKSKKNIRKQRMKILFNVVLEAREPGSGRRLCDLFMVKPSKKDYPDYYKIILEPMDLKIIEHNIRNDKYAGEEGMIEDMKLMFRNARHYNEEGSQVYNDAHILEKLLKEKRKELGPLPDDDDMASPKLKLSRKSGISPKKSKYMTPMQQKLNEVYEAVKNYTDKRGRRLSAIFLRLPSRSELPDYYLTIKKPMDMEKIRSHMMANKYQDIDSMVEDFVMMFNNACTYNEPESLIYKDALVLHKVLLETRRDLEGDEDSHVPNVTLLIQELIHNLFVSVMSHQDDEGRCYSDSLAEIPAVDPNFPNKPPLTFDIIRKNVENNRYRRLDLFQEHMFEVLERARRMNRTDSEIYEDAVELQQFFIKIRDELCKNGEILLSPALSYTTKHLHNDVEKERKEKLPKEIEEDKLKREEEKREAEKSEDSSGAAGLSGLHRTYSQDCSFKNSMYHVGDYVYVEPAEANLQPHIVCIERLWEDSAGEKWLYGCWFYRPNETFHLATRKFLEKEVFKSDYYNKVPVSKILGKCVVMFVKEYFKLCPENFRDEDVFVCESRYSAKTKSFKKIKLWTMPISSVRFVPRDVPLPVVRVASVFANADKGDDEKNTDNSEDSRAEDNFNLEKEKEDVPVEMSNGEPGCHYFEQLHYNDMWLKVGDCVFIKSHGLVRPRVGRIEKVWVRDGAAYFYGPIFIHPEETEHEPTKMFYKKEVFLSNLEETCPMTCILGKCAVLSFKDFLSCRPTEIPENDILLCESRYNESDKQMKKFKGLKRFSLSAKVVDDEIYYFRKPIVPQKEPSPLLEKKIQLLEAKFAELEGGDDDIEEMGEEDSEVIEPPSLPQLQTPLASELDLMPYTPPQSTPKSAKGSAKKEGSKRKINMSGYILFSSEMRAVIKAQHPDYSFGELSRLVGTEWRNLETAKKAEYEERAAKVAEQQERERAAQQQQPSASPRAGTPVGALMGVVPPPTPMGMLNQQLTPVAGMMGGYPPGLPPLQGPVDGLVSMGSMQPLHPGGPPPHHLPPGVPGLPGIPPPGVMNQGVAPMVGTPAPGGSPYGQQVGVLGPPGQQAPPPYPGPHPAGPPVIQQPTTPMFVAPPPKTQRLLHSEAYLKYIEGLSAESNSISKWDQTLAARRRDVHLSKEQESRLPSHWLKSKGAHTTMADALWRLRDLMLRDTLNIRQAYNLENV
Experiment [4] addresses Bromodomain adjacent to zinc finger domain protein 2B (Homo sapiens) (UniProt Q9UIF8). The following applies: 100 uM.

Sequence of Bromodomain adjacent to zinc finger domain protein 2B (Homo sapiens) (Q9UIF8 whole entry, the tested form may be a part): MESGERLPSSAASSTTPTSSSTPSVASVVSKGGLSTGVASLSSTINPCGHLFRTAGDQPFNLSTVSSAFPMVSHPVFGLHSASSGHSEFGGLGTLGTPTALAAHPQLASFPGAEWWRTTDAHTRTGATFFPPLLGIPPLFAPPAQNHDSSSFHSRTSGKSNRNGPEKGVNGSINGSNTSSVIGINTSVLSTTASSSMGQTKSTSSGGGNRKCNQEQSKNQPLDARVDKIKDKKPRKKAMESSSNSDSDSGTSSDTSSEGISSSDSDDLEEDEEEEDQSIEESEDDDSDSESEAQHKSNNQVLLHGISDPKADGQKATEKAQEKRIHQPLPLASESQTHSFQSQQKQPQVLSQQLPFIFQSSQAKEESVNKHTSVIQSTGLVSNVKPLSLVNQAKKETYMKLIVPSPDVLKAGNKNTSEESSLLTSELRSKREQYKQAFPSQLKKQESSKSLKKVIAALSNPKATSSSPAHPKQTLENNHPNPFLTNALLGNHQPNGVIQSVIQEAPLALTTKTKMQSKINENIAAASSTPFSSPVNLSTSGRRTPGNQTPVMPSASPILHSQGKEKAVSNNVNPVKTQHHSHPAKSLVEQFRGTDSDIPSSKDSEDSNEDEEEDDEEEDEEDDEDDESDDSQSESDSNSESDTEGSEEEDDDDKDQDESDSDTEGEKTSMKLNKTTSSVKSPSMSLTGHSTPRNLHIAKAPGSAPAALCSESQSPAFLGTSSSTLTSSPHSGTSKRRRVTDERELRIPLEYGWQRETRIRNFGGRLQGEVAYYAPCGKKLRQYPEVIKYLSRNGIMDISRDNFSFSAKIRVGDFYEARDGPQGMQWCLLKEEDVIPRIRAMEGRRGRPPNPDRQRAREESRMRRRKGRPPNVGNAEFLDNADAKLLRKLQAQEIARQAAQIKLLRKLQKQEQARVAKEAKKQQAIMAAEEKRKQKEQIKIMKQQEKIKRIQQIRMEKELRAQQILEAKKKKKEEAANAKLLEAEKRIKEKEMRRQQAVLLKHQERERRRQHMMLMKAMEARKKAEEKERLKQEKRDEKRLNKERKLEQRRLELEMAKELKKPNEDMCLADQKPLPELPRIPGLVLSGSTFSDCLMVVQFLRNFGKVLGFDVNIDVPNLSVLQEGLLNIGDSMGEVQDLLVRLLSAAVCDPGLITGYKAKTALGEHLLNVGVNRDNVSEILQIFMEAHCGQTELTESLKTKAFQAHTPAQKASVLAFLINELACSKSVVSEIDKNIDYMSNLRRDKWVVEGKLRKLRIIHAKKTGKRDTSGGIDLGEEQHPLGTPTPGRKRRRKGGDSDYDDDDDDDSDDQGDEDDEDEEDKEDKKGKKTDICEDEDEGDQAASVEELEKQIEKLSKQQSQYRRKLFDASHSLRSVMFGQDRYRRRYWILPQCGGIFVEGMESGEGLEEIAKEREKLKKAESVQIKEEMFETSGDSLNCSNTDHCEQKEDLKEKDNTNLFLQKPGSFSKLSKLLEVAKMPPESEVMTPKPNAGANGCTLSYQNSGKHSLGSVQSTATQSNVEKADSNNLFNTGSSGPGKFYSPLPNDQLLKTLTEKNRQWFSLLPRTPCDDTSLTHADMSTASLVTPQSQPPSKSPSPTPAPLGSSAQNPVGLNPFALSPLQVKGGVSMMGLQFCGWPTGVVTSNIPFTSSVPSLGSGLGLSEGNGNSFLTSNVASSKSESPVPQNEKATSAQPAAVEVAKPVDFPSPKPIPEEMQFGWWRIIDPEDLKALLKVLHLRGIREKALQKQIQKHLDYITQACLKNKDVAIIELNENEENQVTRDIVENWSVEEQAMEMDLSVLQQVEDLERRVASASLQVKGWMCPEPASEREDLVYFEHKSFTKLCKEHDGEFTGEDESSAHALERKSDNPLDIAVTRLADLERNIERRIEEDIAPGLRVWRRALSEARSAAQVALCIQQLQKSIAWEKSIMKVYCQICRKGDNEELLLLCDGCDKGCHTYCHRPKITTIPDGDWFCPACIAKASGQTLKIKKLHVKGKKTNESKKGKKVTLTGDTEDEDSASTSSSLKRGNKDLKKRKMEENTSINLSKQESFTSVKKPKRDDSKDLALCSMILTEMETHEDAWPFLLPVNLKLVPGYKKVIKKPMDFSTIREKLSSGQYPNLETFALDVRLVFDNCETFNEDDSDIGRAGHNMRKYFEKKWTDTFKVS

In the case of `COc1ccc(S(=O)(=O)Nc2cc(-c3nn4c(C)nnc4c4ccccc34)ccc2N2CCN(C)CC2)cc1`, the inhibition in experiment [1] is less than 30%.

Turning to `Cc1ccc(-c2nn3c(C)nnc3c3ccccc23)cc1NS(C)(=O)=O`, the inhibition in experiment [2], in experiment [3] and in experiment [4] was less than 25% throughout.

`CCC(=O)Nc1cc(-c2nn3c(C)nnc3c3ccccc23)ccc1C`: the inhibition in experiment [2], in experiment [3] and in experiment [4] was less than 25% throughout.

In experiment [1], `Cc1nnc2c3ccccc3c(-c3ccc(N4CCOCC4)c(NS(C)(=O)=O)c3)nn12` returned an inhibition of less than 30%.

In the case of `Cc1nnc2c3ccccc3c(-c3ccc(N4CCOCC4)c(NS(=O)(=O)c4ccccc4Cl)c3)nn12`, the inhibition in experiment [1] is less than 30%.

As to `CNS(=O)(=O)c1cc(-c2nn3c(C)nnc3c3ccccc23)ccc1C`, the inhibition in experiment [2], in experiment [3] and in experiment [4] was less than 25% each time.

`Cc1nnc2c3ccccc3c(-c3ccc(N4CCOCC4)c(NS(=O)(=O)c4ccc(Cl)cc4)c3)nn12` displayed an inhibition in experiment [1] of less than 30%.

As to `Cc1ccc(-c2nn3c(C)nnc3c3ccccc23)cc1S(=O)(=O)N(C)C`, the inhibition in experiment [2], in experiment [3] and in experiment [4] was less than 25% each time.
